Laboratory results: patent publication US6203817A (priority 1998, dated 2001)

Legend:
[1] = Critical micelle concentration (CMC) in water; assay type: physicochemical
Source text: According to this embodiment, the salt form is selected by measuring its CMC in water by methods known in the art, for example, by the use of a surface tensiometer. […] The CMC provides a measure of the surface activity of the particular drug salt.

[2] = system: skin of hairless guinea pigs; test: Urinary excretion kinetics / skin depot of fluoxetine; assay type: in vivo, hairless guinea pig
Source text: (§1) Skin sites on hairless guinea pigs were lightly washed.

[3] = cited from earlier work
[4] = system: skin of hairless guinea pigs; test: Paroxetine gels skin irritation at equivalent flux; assay type: in vivo, hairless guinea pig; conditions: FIG. 8
Source text: as §1
All paroxetine gels contained paroxetine base, 40% ethanol, 35% propylene glycol, water, and 5% HPMC. Placebo gels were identical with water replacing the paroxetine. Paroxetine acetate gels contained paroxetine base, acetic acid, water, and 2% HEC. […] All paroxetine gels contained approximately 28 μCi ^3 H paroxetine per ml.

## CN(C)CCCN1c2ccccc2Sc2ccc(Cl)cc21 [chlorpromazine acetate]
[1]
  CMC: 0.02 M

## CNCCC(Oc1ccc(C(F)(F)F)cc1)c1ccccc1 (centres unmarked) [fluoxetine acetate]
[2]; acidified with excess acetic acid to pH 5
  skin depot (urinary excretion): the skin depot is eliminated
[2]; acidified with excess acetic acid to pH 5, compared with intravenous administration
  kinetics of elimination (urinary excretion): close to that observed following intravenous administration of the drug
[2]; fluoxetine acetate, pH 6.5
  skin depot (urinary excretion): the skin depot is reduced but is still present
[1]
  CMC: 0.05 M

## CNCCC(Oc1ccc(C(F)(F)F)cc1)c1ccccc1 (centres unmarked) [fluoxetine base, fluoxetine]
[2]; fluoxetine base
  skin depot (urinary excretion): a skin depot is observed
[3]
  pKa: 9.7

## Fc1ccc([C@@H]2CCNC[C@H]2COc2ccc3c(c2)OCO3)cc1 [paroxetine acetate]
[4]
  irritation vs paroxetine base gels at equivalent flux: reduced
